The values that follow come from ChEMBL document CHEMBL5370641, “Structure-Based Optimization and Biological Evaluation of Potent and Selective MMP-7 Inhibitors for Kidney Fibrosis” (J Med Chem, 2023).

Calls of active or inactive are those of the source. The calls are words filed in the database; no cut-off is given here. Numbered stars: 1 amine (or outer) side, 2 acyl side, 3 side chain; on linkers, the order of the positions; unused ones are H or OH. Square brackets hold non-standard residues; d marks the D form. Peptide text beside a SMILES is read from it. * marks the point of attachment. Benzenesulfonyl(4-Cl,3-CF3) = O=S(=O)(c1ccc(Cl)c(C(F)(F)F)c1)*; γGlu = O=C(O)[C@H](CCC(=O)[*:2])N[*:1]; 4Pal = N[C@@H](Cc1ccncc1)C(=O)O; Tle = CC(C)(C)[C@H](N)C(=O)O; β3hP = O=C(O)C[C@@H]1CCCN1

The target of series [1] is Neutrophil collagenase (Homo sapiens, UniProt P22894). Description: Inhibition of recombinant human MMP8 using MOCAc-Pro-Leu-Gly-Leu-A2pr-(Dnp)-Ala-Arg-NH2 as substrate preincubated with compound for 15 mins followed by substrate addition and measured after 1 hrs by fluorescence based analysis.
In series [2] the test system is Mus musculus. Description: Antifibrotic activity against unilateral ureteric obstruction induced C57BL/6J mouse model of renal fibrosis assessed as reduction in renal collagen at 10 to 100 mg/kg/day, SC preadministered with compound for 7 days followed by UUO surgery and measured after 7 days. It counts as functional, organism-based. To be noted: dose 10-100 mg/kg/day, time 14.0 day.

The target in series [3] is Matrix metalloproteinase-14 (Homo sapiens, UniProt P50281). Nature of the series: Inhibition of recombinant human MMP14 using MOCAc-Lys-Pro-Leu-Gly-Leu-A2pr(Dnp)-Ala-Arg-NH2 as substrate preincubated with compound for 15 mins followed by substrate addition and measured after 1 hrs by fluorescence based analysis.
Series [4] is described as follows: Metabolic stability in rat liver microsome assessed as intrinsic clearance at 1 uM incubated for 15 mins by LC-MS analysis. It counts as ADME. Conditions: liver microsomes, read-out: CLH (converted).
For series [5], the target named is T1, Matrilysin (Homo sapiens, UniProt P09237).
T1 sequence (P09237 whole entry): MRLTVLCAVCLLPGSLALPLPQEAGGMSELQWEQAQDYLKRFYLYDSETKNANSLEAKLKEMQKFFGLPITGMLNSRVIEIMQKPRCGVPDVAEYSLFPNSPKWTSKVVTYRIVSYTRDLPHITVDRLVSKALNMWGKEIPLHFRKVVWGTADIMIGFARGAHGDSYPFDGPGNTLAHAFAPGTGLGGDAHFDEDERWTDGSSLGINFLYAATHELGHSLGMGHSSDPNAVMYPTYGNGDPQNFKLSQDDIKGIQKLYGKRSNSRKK
Description: Inhibition of recombinant human MMP7 using MOCAc-Pro-Leu-Gly-Leu-A2pr-(Dnp)-Ala-Arg-NH2 as substrate preincubated with compound for 15 mins followed by substrate addition and measured after 2 hrs by fluorescence based analysis.

In series [6] the target is Macrophage metalloelastase (Homo sapiens, UniProt P39900). Nature of the series: Inhibition of recombinant human MMP12 using MOCAc-Pro-Leu-Gly-Leu-A2pr-(Dnp)-Ala-Arg-NH2 as substrate preincubated with compound for 15 mins followed by substrate addition and measured after 1 hrs by fluorescence based analysis.
For series [7], the species on record is Homo sapiens. Description: Selectivity ratio of IC50 for inhibition of recombinant human MMP12 to IC50 for inhibition of recombinant human MMP7.
For series [8], the target named is Stromelysin-1 (Homo sapiens, UniProt P08254). Description: Inhibition of recombinant human MMP3 using MOCAc-Arg-Pro-Lys-Pro-Val-Glu-Nva-Trp-Arg-Lys(Dnp)-NH2 as substrate preincubated with compound for 15 mins followed by substrate addition and measured after 1 hrs by fluorescence based analysis.
Series [9] addresses Collagenase 3 (Homo sapiens, UniProt P45452). Description: Inhibition of recombinant human MMP13 using MOCAc-Pro-Leu-Gly-Leu-A2pr-(Dnp)-Ala-Arg-NH2 as substrate preincubated with compound for 15 mins followed by substrate addition and measured after 1 hrs by fluorescence based analysis.
Series [10] is described as follows: Lipophilicity, logD of compound at pH 7.4 by HPLC-UV analysis. It is filed as physicochemical. To be noted: buffer.
The nature of series [11]: Metabolic stability in human serum assessed as parent compound remaining at 5 uM incubated for 4 hrs by LC-MS/MS analysis. It counts as ADME, cell-free. To be noted: read-out: Stability.
For series [12], the species on record is Homo sapiens. Nature of the series: Selectivity ratio of IC50 for inhibition of recombinant human MMP8 to IC50 for inhibition of recombinant human MMP7.
The species named for series [13] is Homo sapiens. Nature of the series: Selectivity ratio of IC50 for inhibition of recombinant human MMP2 to IC50 for inhibition of recombinant human MMP7.
Series [14] in a line: Volume of distribution at steady state in Sprague-Dawley rat at 1 mg/kg, iv administered as single dose by LC-MS/MS analysis. Conditions: in vivo, read-out: Vdss. It counts as ADME, organism-based.
Series [15] is described as follows: Protein binding in mouse serum incubated for 4 hrs by equilibrium dialysis based LC-MS/MS analysis. It is filed as ADME, cell-free. To be noted: read-out: PB (converted).
The target of series [16] is 72 kDa type IV collagenase (Homo sapiens, UniProt P08253). Description: Inhibition of recombinant human MMP2 using MOCAc-Pro-Leu-Gly-Leu-A2pr-(Dnp)-Ala-Arg-NH2 as substrate preincubated with compound for 15 mins followed by substrate addition and measured after 1 hrs by fluorescence based analysis.
Series [17] deals with T2, Interstitial collagenase (Homo sapiens, UniProt P03956).
T2 sequence (P03956 whole entry): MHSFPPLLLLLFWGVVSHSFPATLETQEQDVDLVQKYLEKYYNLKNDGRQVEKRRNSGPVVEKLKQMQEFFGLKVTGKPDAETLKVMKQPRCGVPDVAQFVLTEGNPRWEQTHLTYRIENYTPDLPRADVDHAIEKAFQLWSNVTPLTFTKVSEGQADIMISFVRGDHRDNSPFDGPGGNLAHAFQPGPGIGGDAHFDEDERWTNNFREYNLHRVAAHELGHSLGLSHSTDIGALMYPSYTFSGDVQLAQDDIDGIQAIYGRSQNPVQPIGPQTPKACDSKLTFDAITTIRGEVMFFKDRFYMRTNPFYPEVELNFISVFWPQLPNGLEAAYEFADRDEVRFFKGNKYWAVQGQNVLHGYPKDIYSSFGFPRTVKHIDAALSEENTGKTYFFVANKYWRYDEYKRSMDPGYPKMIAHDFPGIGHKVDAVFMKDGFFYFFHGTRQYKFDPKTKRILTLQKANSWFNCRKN
Description: Inhibition of recombinant human MMP1 using MOCAc-Lys-Pro-Leu-Gly-Leu-A2pr(Dnp)-Ala-Arg-NH2 as substrate preincubated with compound for 15 mins followed by substrate addition and measured after 1 hrs by fluorescence based analysis.

The nature of series [18]: Metabolic stability in rat hepatocytes assessed as intrinsic clearance at 1 uM incubated for 1 to 4 hrs by LC-MS/MS analysis. It counts as ADME, cell-based, Hepatocyte. To be noted: time 1-4 hrs, read-out: CLH (converted).
For series [19], the species on record is Homo sapiens. Nature of the series: Selectivity ratio of IC50 for inhibition of recombinant human MMP3 to IC50 for inhibition of recombinant human MMP7.
The nature of series [20]: Metabolic stability in human liver microsome assessed as intrinsic clearance at 1 uM incubated for 15 mins by LC-MS analysis. It counts as ADME. To be noted: liver microsomes, read-out: CLH (converted). For orientation: Liver microsomes are a subcellular fraction often used to study metabolism.
The species entered for series [21] is Homo sapiens. Description: Selectivity ratio of IC50 for inhibition of recombinant human MMP14 to IC50 for inhibition of recombinant human MMP7.
Series [22] in a line: Total clearance in Sprague-Dawley rat at 1 mg/kg, iv administered as single dose by LC-MS/MS analysis. To be noted: in vivo. It is filed as ADME, organism-based.
For series [23], the species on record is Homo sapiens. Description: Selectivity ratio of IC50 for inhibition of recombinant human MMP9 to IC50 for inhibition of recombinant human MMP7.
Series [24] is described as follows: Protein binding in human serum incubated for 4 hrs by equilibrium dialysis based LC-MS/MS analysis. It counts as ADME, cell-free. To be noted: read-out: PB (converted). Background: In equilibrium dialysis free small molecules cross a membrane that holds back macromolecules.
For series [25], the target named is T3, Matrilysin (Mus musculus, UniProt Q10738).
T3 sequence (Q10738 whole entry): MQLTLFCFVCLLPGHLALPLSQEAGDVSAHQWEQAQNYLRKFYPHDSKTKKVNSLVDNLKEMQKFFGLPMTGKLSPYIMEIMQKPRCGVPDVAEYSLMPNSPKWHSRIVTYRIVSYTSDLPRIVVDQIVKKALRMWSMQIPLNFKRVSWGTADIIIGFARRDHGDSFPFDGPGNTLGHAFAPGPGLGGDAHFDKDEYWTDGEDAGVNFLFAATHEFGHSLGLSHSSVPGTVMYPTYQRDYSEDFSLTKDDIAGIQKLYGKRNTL
Nature of the series: Inhibition of mouse MMP7 using MOCAc-Pro-Leu-Gly-Leu-A2pr-(Dnp)-Ala-Arg-NH2 as substrate preincubated with compound for 15 mins followed by substrate addition and measured after 2 hrs by fluorescence based analysis.

Series [26] is filed under the species Homo sapiens. Nature of the series: Selectivity ratio of IC50 for inhibition of recombinant human MMP13 to IC50 for inhibition of recombinant human MMP7.
The species entered for series [27] is Homo sapiens. Nature of the series: Selectivity ratio of IC50 for inhibition of recombinant human MMP1 to IC50 for inhibition of recombinant human MMP7.
The target in series [28] is Matrix metalloproteinase-9 (Homo sapiens, UniProt P14780). Description: Inhibition of recombinant human MMP9 using MOCAc-Pro-Leu-Gly-Leu-A2pr-(Dnp)-Ala-Arg-NH2 as substrate preincubated with compound for 15 mins followed by substrate addition and measured after 1 hrs by fluorescence based analysis.
Series [29] has as its system Mus musculus. Description: Antifibrotic activity against unilateral ureteric obstruction induced C57BL/6J mouse model of renal fibrosis assessed as reduction in renal collagen at 0.1 mg/ml preadministered with compound via drinking water for 7 days followed by UUO surgery and measured after 7 days. It counts as functional, organism-based. Conditions: route po, time 14.0 day.

Sequence of Matrix metalloproteinase-9 (P14780 whole entry): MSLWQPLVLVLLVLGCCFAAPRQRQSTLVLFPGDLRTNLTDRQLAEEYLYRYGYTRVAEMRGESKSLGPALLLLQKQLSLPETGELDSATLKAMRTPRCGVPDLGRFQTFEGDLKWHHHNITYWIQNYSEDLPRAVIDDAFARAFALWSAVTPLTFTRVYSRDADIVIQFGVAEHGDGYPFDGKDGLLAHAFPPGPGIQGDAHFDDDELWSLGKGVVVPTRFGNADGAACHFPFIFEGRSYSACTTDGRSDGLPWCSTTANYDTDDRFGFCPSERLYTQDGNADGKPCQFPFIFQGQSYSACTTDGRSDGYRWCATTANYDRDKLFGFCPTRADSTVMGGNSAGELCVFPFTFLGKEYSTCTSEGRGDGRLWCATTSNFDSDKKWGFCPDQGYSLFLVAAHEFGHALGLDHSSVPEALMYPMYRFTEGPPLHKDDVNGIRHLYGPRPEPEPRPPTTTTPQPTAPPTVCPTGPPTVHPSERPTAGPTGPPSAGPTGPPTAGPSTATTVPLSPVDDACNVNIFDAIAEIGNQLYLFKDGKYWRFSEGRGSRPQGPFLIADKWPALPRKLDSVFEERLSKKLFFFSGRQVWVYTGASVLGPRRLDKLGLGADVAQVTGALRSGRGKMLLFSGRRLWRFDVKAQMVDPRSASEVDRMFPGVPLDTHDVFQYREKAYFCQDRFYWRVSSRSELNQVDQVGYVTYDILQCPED
Sequence of Stromelysin-1 (P08254 whole entry): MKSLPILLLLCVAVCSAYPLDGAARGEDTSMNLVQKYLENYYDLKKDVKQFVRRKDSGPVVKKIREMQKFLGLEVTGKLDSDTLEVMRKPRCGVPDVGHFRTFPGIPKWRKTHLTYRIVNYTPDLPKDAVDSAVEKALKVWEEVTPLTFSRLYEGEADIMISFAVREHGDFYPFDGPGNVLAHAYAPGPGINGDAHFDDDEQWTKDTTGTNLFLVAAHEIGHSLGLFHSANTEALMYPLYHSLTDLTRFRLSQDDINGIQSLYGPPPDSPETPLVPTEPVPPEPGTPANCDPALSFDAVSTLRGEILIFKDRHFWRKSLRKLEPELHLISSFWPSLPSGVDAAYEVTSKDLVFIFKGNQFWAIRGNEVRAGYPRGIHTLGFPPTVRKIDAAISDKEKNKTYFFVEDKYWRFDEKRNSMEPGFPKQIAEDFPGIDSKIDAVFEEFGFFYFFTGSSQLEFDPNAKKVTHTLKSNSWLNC
Sequence of 72 kDa type IV collagenase (P08253 whole entry): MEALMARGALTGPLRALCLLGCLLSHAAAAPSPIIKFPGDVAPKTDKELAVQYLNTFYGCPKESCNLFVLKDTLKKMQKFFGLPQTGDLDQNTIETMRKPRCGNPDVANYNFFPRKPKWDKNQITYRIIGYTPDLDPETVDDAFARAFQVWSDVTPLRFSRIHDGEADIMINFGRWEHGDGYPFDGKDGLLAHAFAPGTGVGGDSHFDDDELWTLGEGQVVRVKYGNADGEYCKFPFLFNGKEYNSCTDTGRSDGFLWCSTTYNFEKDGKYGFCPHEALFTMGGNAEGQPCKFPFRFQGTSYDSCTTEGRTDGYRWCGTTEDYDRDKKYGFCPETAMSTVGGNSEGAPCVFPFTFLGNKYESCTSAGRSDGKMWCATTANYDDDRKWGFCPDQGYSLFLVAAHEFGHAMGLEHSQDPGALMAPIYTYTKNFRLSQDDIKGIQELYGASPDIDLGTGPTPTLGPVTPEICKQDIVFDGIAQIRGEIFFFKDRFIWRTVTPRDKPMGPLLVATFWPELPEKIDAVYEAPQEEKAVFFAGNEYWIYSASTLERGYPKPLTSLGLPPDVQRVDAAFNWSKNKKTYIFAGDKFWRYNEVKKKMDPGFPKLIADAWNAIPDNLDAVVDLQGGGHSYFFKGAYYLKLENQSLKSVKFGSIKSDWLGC
Sequence of Neutrophil collagenase (P22894 whole entry): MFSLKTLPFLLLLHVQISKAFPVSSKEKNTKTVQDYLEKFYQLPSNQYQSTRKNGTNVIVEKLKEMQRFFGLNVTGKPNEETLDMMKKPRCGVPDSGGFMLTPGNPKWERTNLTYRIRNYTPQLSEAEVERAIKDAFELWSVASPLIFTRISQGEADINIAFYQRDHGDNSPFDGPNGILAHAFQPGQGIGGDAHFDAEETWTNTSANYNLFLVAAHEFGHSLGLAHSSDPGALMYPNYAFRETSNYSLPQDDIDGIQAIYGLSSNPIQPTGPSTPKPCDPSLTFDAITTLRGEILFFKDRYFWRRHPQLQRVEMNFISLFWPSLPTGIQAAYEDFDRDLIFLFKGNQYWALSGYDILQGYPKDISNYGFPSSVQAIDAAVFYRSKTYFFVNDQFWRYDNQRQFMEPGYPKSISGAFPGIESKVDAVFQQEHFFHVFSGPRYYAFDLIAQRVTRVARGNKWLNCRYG
Sequence of Macrophage metalloelastase (P39900 whole entry): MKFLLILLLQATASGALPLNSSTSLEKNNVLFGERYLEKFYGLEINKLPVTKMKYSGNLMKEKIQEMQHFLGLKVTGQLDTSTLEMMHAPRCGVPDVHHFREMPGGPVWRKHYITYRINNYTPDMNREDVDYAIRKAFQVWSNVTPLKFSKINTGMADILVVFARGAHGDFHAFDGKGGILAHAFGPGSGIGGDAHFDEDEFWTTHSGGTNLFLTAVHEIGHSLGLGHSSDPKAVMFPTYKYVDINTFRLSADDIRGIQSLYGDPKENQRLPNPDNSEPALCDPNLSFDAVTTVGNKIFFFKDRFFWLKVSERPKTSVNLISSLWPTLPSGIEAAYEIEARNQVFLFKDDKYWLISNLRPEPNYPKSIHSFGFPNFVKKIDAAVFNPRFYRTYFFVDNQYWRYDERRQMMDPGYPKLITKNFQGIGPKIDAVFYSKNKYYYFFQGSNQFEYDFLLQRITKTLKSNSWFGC

`CC(C)(C)[C@H](NC(=O)[C@H](Cc1ccncc1)NC(=O)CNC(=O)CC[C@H](NS(=O)(=O)c1ccc(Cl)c(C(F)(F)F)c1)C(=O)O)C(=O)N1CCC[C@H]1CC(N)=O` ({Benzenesulfonyl(4-Cl,3-CF3)-γGlu}-G[4Pal][Tle][β3hP]-NH2): the IC50 (usually the concentration needed to halve the response being measured) in [1] is greater than 100 µM; in series [3], 0.85 µM; in [5], 0.0028 µM; in series [6], 1.3 µM; in [8], greater than 100 µM; in [9] it was greater than 100 µM. Further, the IC50 was 7.5 µM in series [16], greater than 100 µM in [17], 0.049 µM in [25] and greater than 100 µM in series [28]. For the same molecule, the outcome in [2] was Active. Further, the CLint scaled at 1 µM in [4] is 23.6 mL/min/kg; in [18] it was 11 mL/min/kg; in series [20] it was 13.6 mL/min/kg. The Ratio IC50 in series [7] is 460; in series [12], greater than 36000; in [13] it was 2700; in series [19], greater than 36000; in series [21], 300; in series [23], greater than 36000. Further, the Ratio IC50 in [26] and in series [27] was greater than 36000 in each case. The pH-dependent lipophilicity (logD) (commonly lipophilicity at a set pH, counting ionised and neutral species) in series [10] amounted to 1.04. For the same molecule, in series [11], the remaining at 4 h, 5 µM was 101%. Also, the Vd in series [14] was found to be 1.09 L/kg. The values for the fraction unbound at 4 h in series [15] and in [24] were 0.368 and 0.266, respectively. Also, in [22], the clearance (in general, the volume of plasma or blood freed of the substance per unit of time) is 85.5 mL/min/kg.

For `CC(C)C[C@H](NC(=O)CNC(=O)CC[C@H](NS(=O)(=O)c1ccc(Cl)c(C(F)(F)F)c1)C(=O)O)C(=O)N[C@H](C(=O)N1CCC[C@H]1CC(N)=O)C(C)(C)C` ({Benzenesulfonyl(4-Cl,3-CF3)-γGlu}-GL[Tle][β3hP]-NH2), the concentration for half-maximal inhibition (IC50) is 55 µM in series [1]; 0.24 µM in series [3]; 0.0077 µM in [5]; 2.9 µM in series [6]; greater than 100 µM in series [8]; greater than 100 µM in series [9]. Further, the 50% inhibitory concentration (IC50) in [16] was 8.5 µM; in series [17], 92 µM; in series [28], greater than 100 µM. In addition, the Ratio IC50 was 380 in series [7]; 7100 in series [12]; 1100 in series [13]; greater than 13000 in series [19]; 31 in series [21]; greater than 13000 in series [23]. The Ratio IC50 in [26] was greater than 13000; in series [27], 12000.

On to `CCCCc1nc(Cl)c(CO)n1Cc1ccc(-c2ccccc2-c2nnn[nH]2)cc1`, for which, in series [29], the outcome was Active.
